Measured values published in ChEMBL document CHEMBL3992487 (Medchemcomm, 2016).

Assays:
[1] = Dissociation constant, pKa of the compound; type: physicochemical
[2] = Intrinsic clearance in human liver microsomes; type: ADME, microsome; settings: read-out: CLH
[3] = Intrinsic clearance in human hepatocytes assessed per million cells; type: ADME, cell-based, Hepatocyte; settings: read-out: CLH
[4] = Clearance in rat blood; type: ADME
[5] = Oral bioavailability in rat; type: ADME, organism-based; settings: in vivo

| Compound | pKa [1] | microsomal CLint [2] [µL/min/mg] | hepatocyte CLint [3] [µL/min/1e6 cells] | clearance [4] [mL/min/kg] | bioavailability [5] [%] |
| --- | --- | --- | --- | --- | --- |
| COC[C@@](C)(N)c1nc(-c2ccc(OC(F)(F)F)cc2)c[nH]1 | 7.1 | – | – | – | – |
| NC(CF)(CF)c1nc(-c2ccc(OC(F)(F)F)cc2)c[nH]1 | 5.9 | – | – | – | – |
| CC(C)(N)c1nc(-c2ccc(OC(F)(F)F)cc2)c[nH]1 | 7.9 | 8 | < 6 | – | – |
| NC1(Cc2nc(-c3ccc(OC(F)(F)F)cc3)c[nH]2)COC1 | 6.4 | – | – | 5 | 49 to 52 |
| C[C@](N)(CF)c1nc(-c2ccc(OC(F)(F)F)cc2)c[nH]1 | 6.4 | – | – | – | – |
